Values of other authors in patent US20080317725A1, “COMPOSITIONS AND METHODS OF TREATING CHRONIC KIDNEY DISEASE” (priority 2007, published 2008).

Columns and labels:
[1] = administered in large doses
[2] = system: humans
[3] = system: subjects undergoing dialysis; conditions: vitamin A intake of about 15,000 IU

Which side effect [1] does the source give for `CC(=O)N[C@@H](CS)C(=O)O` [NAC, N-acetyl cysteine] here?
Its side effect is “cause nausea”.

For `C=C1CC[C@H](O)C/C1=C/C=C1\CCC[C@]2(C)[C@@H]([C@H](C)/C=C/[C@H](C)C(C)C)CC[C@@H]12` [vitamin D2, ergocalciferol], which “vitamin D activity in humans relative to vitamin D3” value [2] is on record?
Its value is “about 1.7 times less than D3”.

Which “toxicity of vitamin A intake” value [3] does the source give for vitamin A here?
Its value is “produce vitamin A toxicity and correlate with hypercalcaemia”.
